Laboratory results as given in patent publication US20230405134A1, “NOVEL PROTAC CHIMERIC COMPOUND, AND PHARMACEUTICAL COMPOSITION COMPRISING SAME FOR PREVENTING, AMELIORATING, OR TREATING DISEASES THROUGH TARGET PROTEIN DEGRADATION” (POSTECH RESEARCH AND BUSINESS DEVELOPMENT FOUNDATION, priority 2020, published 2023).
Where a SMILES comes first, the peptide text is derived from it. Bridges are numbered along the chain shown (N, C = ends). [ ]: non-standard residue; d: D form. Cha = N[C@@H](CC1CCCCC1)C(=O)O; S5 = C=CCCC[C@](C)(N)C(=O)O

T1: UBR box (residues 113-194) in the UBR1 E3 ubiquitin ligase of S. cerevisiae (S. cerevisiae, UniProt P19812 113-194)
T1 construct: range 113-194; Expressed and purified as in Nat; Struct; Mol. Biol. 2010, 17, 1175-1181
T1 sequence (looked up): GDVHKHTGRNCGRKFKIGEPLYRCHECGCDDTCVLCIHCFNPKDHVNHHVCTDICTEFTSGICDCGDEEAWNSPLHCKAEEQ


Columns and labels:
CSF-1 = CSF-1 mRNA level by RT-qPCR in MDA-MB-231 cells; type: cell-based, human; conditions: 12 hours
From the text: (§1) The pharmacological effects on SRC-1 dependent signal transmission were explored using the previously discovered SRC-1 degrading substance. The SRC-1 is overexpressed in various cancers and plays a pivotal role in increasing cell migration and invasion by regulating the expression of related genes. Therefore, when treated with ND1-YL2, an SRC-1 degrading substance, the expression of genes stimulated by SRC-1, such as colony stimulating factor-1 (CSF-1), a gene encoding the cytokine CSF-1 that induces cell differentiation and migration, will be suppressed. To confirm this, MDA-MB-231 cells were treated with DMSO and various concentrations of ND1-YL2, YL2 or N-degron tetrapeptide for 12 hours, and the mRNA level of CSF-1 was normalized to 18S level. Confirmation was made using quantitative real-time polymerase chain reaction (RT-qPCR). MDA-MB-231 cells were seeded at 2×10^5 cells per well. After 24 hours, compounds (YL2, RLAA or ND1-YL2) were treated in Opti-MEM medium for 12 hours. Subsequently, general mRNA isolation was performed using TRI reagent (Takara), and total mRNA was isolated from the cells. The absorbance of total mRNA was measured with a Tecan F200 Nanophotometer, and reverse transcription was performed using AccuPower RocketScript Cycle RT PreMix (Bioneer). Quantitative real-time PCR for CSF-1, E-Cadherin and 18S was performed using a StepOnePlus Real-Time PCR System and SYBR Green mix (Applied Biosystems) according to the manufacturer's manual.

E-cadherin = E-cadherin mRNA level by RT-qPCR in MDA-MB-231 cells; type: cell-based, human; conditions: 12 hours
From the text: as §1
In addition, the effect of the ND1-YL2 on the expression of E-cadherin, a tumor suppressor gene that plays an important role in cell-cell adhesion, was tested. Since SRC-1 protein is known to suppress the E-cadherin expression, the ND1-YL2 will upregulate the E-cadherin by degrading SRC-1.

MDA-MB-231 cells [1] = assay: Gap closure migration assay; type: cell-based, human; conditions: 20 μM, 72 hours
Experimental: Based on the results that the SRC-1 degradation effectively affects the transcription mediated by SRC-1 (FIGS. 18A and 18B), it was predicted that ND1-YL2 would exert an inhibitory effect on downstream signaling pathways such as increased cancer cell migration and invasion. To test this, we first performed a gap closure migration assay using an invasive MDA-MB-231 cell line. MDA-MB-231 cells (70 μL of 4×10^5 cells/mL) were seeded in culture insert 2 wells (ibidi, 80209) pre-inserted into p-dishes (ibidi) under the conditions of 37° C. and 5% CO2. The culture insert 2 wells was gently removed with sterile tweezers. The cells were treated with DMSO, YL2 (20 […]), RLAA (20 μM) or ND1-YL2 (20 μM) in Opti-MEM medium for 72 hours. Images were obtained by a camera (Olympus) attached to an optical microscope. The cells were grown in the culture insert wells, and the inserts were removed to create intercellular gaps inside the wells. Subsequently, after treated with DMSO, YL2, RLAA peptide or ND1-YL2, the cells were cultured for 72 hours and the degree of cell migration was observed. The cell migration was quantified by analyzing the images of cells filling the gap.

MDA-MB-231 cells [2] = assay: Matrigel invasion assay; type: cell-based, human; conditions: 24 hours; ND1-YL2 various concentrations, YL2 and RLAA 20 μM
Experimental: The inhibition of cell migration may be due to the inhibitory effect of ND1-YL2 on cell growth. In order to exclude this possibility, the invasive ability of cells treated with ND1-YL2 was confirmed. A Corning Matrigel insert (Corning) was placed in a 24-well plate. After hydrating the Matrigel insert with an FBS-free DMEM medium for 2 hours in a CO2 incubator, MDA-MB-231 cells were cultured in the Matrigel insert (4×10^4 cells/insert) with 125 μL of Opti-MEM medium. Another 125 μl of compound containing Opti-MEM medium was added to the insert. The lower chamber was filled with 500 μL of DMEM medium containing 10% FBS. The Matrigel chamber was cultured for 24 hours under the conditions of 37° C. and 5% CO2. The cell culture media of the upper and lower chambers were removed and washed three times with cold DPBS. Non-invasive cells were then removed with a cotton swab. The bottom of the chamber was fixed with 4% formaldehyde for 10 minutes at room temperature, and stained with Hoechst 33342 (5 μg/mL) for 5 minutes in a CO2 incubator. After washed with DPBS, images of infiltrated cells were obtained by a fluorescence microscope. The percentage of the invasive cells was calculated using the product manual. MDA-MB-231 cells were treated with various concentrations of ND1-YL2, N-degron (20 μM) or YL2 (20 μM). After 24 hours, images of the invaded cells were obtained by a fluorescence microscope, and the number of invaded cells was quantified through the images. […] The inhibitory activity of ND1-YL2 on cell migration and invasion is in good agreement with previous SRC-1 knockdown experiments.

SRC-1 = SRC-1 (Homo sapiens, UniProt Q15788); assay: SRC-1 expression level in MDA-MB-231 cells by Western blot; type: cell-based; design: endogenous in cells; host or cells: MDA-MB-231; conditions: 20 μM, 12 hours
[3] = target: T1, UBR box (residues 113-194) in the UBR1 …; assay: competitive fluorescence polarization on the UBR box (as the sentence implies; the origin of the value is not stated)

SRC-1, sequence (Q15788 whole entry, the tested form may be a part): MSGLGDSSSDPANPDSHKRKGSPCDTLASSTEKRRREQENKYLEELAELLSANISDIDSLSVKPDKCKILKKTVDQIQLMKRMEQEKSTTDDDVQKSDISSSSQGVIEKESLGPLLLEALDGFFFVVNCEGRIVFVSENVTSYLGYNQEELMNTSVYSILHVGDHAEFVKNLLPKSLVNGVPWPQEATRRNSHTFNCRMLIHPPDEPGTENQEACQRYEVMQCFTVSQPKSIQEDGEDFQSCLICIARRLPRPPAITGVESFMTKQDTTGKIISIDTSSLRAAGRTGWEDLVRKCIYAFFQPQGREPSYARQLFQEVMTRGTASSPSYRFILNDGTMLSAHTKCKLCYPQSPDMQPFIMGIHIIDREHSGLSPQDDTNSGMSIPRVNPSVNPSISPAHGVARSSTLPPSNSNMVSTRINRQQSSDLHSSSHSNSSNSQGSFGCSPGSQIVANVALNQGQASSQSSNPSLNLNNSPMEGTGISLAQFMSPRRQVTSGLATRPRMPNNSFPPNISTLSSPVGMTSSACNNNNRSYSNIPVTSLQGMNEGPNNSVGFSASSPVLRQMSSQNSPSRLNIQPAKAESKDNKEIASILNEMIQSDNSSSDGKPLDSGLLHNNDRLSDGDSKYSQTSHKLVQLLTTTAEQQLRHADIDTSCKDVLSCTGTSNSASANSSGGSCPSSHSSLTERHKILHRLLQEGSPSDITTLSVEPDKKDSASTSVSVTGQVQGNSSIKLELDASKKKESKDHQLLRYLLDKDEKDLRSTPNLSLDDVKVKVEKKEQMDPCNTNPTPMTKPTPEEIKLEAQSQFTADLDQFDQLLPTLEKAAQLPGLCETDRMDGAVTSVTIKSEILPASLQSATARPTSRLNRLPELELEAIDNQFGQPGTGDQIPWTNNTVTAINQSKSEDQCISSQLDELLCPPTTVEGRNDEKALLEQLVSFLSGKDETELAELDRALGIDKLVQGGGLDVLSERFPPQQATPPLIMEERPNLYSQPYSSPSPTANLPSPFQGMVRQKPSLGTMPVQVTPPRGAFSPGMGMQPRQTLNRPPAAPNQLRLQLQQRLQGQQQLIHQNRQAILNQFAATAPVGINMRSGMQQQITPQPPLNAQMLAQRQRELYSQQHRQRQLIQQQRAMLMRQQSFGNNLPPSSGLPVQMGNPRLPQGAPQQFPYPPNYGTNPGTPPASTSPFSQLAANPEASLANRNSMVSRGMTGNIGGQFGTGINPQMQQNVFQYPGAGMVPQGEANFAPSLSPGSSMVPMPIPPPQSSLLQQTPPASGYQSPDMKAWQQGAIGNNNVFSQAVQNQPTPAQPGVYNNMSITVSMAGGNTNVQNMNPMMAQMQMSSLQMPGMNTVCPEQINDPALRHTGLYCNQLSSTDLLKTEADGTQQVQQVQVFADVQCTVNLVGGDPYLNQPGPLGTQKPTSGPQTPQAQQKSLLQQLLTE

Row | Molecule | Effect on CSF-1 expression (mRNA normalized to 18S) (CSF-1) | Effect on E-cadherin expression (mRNA) (E-cadherin) | Existing gaps maintained (cell migration) (MDA-MB-231 cells [1]) | Effect on cell invasion (MDA-MB-231 cells [2]) | SRC-1 degradation, single agents compared (SRC-1) | Ki [3] [µM]
1 | CC(C)C[C@H](NC(=O)[C@@H](N)CCCNC(=N)N)C(=O)N[C@@H](C)C(=O)N[C@@H](C)C(N)=O [RLAA] (H-RLAA-NH2) | did not significantly affect | no effect | gaps were completely filled | no significant effect | Neither YL2 nor RLAA tetrapeptide per se had any effect | 
2 | CC(C)C[C@@H]1NC(=O)[C@H](CCCCN)NC(=O)[C@@](C)(NC(=O)[C@H](CC(C)C)NC(=O)[C@H](CC(=O)O)NC(=O)[C@H](CCC(N)=O)NC(=O)[C@H](CCC(=O)O)NC(=O)[C@@H](NC(=O)[C@@H]2CCCN2C(=O)[C@@H]2CCCN2C(=O)[C@H](CC(C)C)NC(=O)[C@@H](N)CC(C)C)[C@@H](C)O)CCC/C=C\CCC[C@@](C)(C(=O)N[C@@H](Cc2ccc(O)cc2)C(N)=O)NC(=O)[C@H](CC2CCCCC2)NC1=O [YL2] (H-LLPPTEQDL[S5]KL[Cha][S5]Y-NH2; staple (Z) 10-14; N-terminus and C-terminus assumed) | did not significantly affect | no effect | gaps were completely filled | no significant effect | Neither YL2 nor RLAA tetrapeptide per se had any effect | 
3 | RLAA (also called RLAA peptide; N-degron tetrapeptide) [RLAA tetrapeptide] |  |  |  |  |  | 4.2
